System: patients with moderate to severe postoperative pain following bunionectomy surgery
Test: Three double blind, randomized clinical studies (007, 008, 021): oxygen desaturation (SpO2<90%) by pulse oximetry during 48 hour treatment
Details: for median number of episodes of SpO2<90%: patients who experienced oxygen desaturation
Description: Oxygen saturation was measured continuously during baseline and the 48 hour treatment periods using pulse oximetry. The total number and percentage of patients with oxygen desaturation (SpO2<90%) were recorded at: 0, 15, 30 and 45 minutes, and 1, 2, 3, 4, 5, 6 and 8 hours after study drug administration; at the time of administration of subsequent doses of study medication; at the time of administration of supplemental analgesic medication; 1 hour after administration of study medication; and whenever a desaturation occurred during the dosing period.
Respiration rate (<10 breaths/min, 10-12 breaths/min, >12 breaths/min) was summarized at the same time points as the SpO2 recordings. Cumulative MED was determined at the time of the first episode of SpO2<90%. All desaturations and use of supplemental oxygenation, use of narcotic antagonists against respiratory impairment, and respiratory related serious adverse events (SAEs) were recorded.
In subjects with oxygen desaturation the following data was recorded: cumulative MED at first desaturation; mean desaturation values; number of desaturation episodes; and total duration of desaturation episodes.
Some patients in the three clinical studies were enrolled who resided near study sites that are located at an altitude of about or over 4000 feet above sea level.

| SMILES | median number of episodes of SpO2<90% | incidence of desaturation (SpO2<90%) (12 mg MED, lower elevation / non-high altitude sites) | cumulative dose before experiencing an oxygen desaturation event (SpO2<90%) (cumulative MED at first desaturation) | incidence of desaturation at high elevation site compared to lower sites (morphine or oxycodone alone) |
| --- | --- | --- | --- | --- |
| CN1CC[C@]23c4c5ccc(O)c4O[C@H]2[C@@H](O)C=C[C@H]3[C@H]1C5.O=S(=O)(O)O [morphine, morphine sulfate] | 2.0 |  |  |  |
| COc1ccc2c3c1O[C@H]1C(=O)CC[C@@]4(O)[C@@H](C2)N(C)CC[C@]314.Cl [oxycodone, oxycodone hydrochloride] | 2.0 | 1.6% | 24 mg | ten-fold greater |

— patent US20120283283A1, “METHODS FOR DETECTING ENHANCED RISK OF OPIOID-INDUCED HYPOXIA IN A PATIENT” (priority 2011, published 2012)
